System: PLC biosensor
Assay: microbe, parasite or virus in culture
Type: cell-based, E. coli BL21
Conditions: for EC10: BL21; for Emax: BL21, read-out: Induction; for maximal fold induction: BL21, read-out: Signal range (max/min), substrate screening, PLC biosensor, E. coli BL21; for EC50 / EC90 / Induction / Sensing range (predicted) / Change in potency relative to sinapic acid (4) / Activity against the FerC biosensor: PLC biosensor; for EC50 / EC90 / Change in potency relative to sinapic acid (4) / Activity against the FerC biosensor: E. coli BL21; for Induction: E. coli BL21, 0.32–1000 μM; for Sensing range (predicted): E. coli BL21, text; for Output signal / efficacy: relative to the PLC biosensor response curve with ferulic acid
Description: Cells were centrifuged, washed and re-suspended with PBS buffer. The expression output was then analyzed by monitoring the fluorescence normalised to cell density (RFU/OD600) in a multimode plate reader (Methods, ESI ^†).
The sequences containing the PLC, PPC and PferB promoters, a RBS, and a Hexa-Histidine tag, flanked by SphI/NdeI were synthetized (GeneART, ThermoFisher). The sequences were enzyme restricted with SphI/NdeI and cloned in pET44eGFP,2 upstream to the eGFP gene, replacing the T7 promoter region generating respectively, the pET44PLCeGFP, pET44PPCeGFP and pET44PferBeGFP vectors.
The FerCA DNA sequence containing the ferA and ferC genes, individually flanked by a PLacI promoter and an rrn_B1 terminator, was synthetized by GeneARTTM (ThermoFisher).
The construct was cloned in a p15 plasmid flanked by NaeI/KasI restriction sites generating […]
the p15FerCA vector. […]
Biosensors Performance and Screening Methods
Reporter controls and the biosensor systems PLC, PPC and PferB were respectively generated by transformation of pET44PLCeGFP, pET44PPCeGFP and pET44PFerBeGFP vectors alone or with p15FerCA in BL21 and DH10B chemically competent E. coli cells. A single colony of each system was grown in LB media supplemented with antibiotics at 37 °C with shaking at 180rpm for 16 hours. Cultures were diluted (1:100) in fresh LB media with appropriate antibiotics, re-incubated at 37 °C with shaking until OD ~0.6 and transferred (450 μL) to multi- […]
μM and 1000 μM. Induction plates were incubated at 37 °C, with shaking at 1000 RPM (Stuart microtitre plate shaker incubator) for 3 hours. Cells were harvested by centrifugation, washed twice and re-suspended with PBS buffer. Expression output was analyzed by monitoring the fluorescence normalised to cell density (RFU/OD) in a multimode plate reader. […]
Compounds for screening were selected using cinnamic acid as a reference structure. The 58 selected compounds were tested with the PLC biosensor in E. coli BL21 cells. The substrate screening assays were performed using concentrations ranging from 0.32 μM to 1000 μM, as described for Ferulic acid. […]
Data Processing and Curve Fitting
Biosensor signal output (eGFP expression) was measured as Relative Fluorescence Units (RFU) and normalised to cell density (OD600). The background auto-fluorescence of E. coli was subtracted from RFU/OD and was normalised (%) to the pLC biosensor response curve to ferulic acid for each experiment. The normalised data was plotted and fitted with a dose-response curve using the Levenberg Marquardt logistic growth/sigmoidal algorithm, using the Origin 2015 (OriginLab, Northampton MA USA) program. The biomass screening data was […]

[1] = Escherichia coli, BL21, substrate screening

Row | SMILES | EC10 (Escherichia coli) | Emax (Escherichia coli) | maximal fold induction (Escherichia coli) | EC50 [1] | EC90 [1] | Induction (substrate screening) | EC50 (substrate screening) | Sensing range (predicted) (substrate screening) | Change in potency relative to sinapic acid (4) (substrate screening) | Output signal / efficacy (substrate screening) | Activity against the FerC biosensor (substrate screening)
1 | O=C(O)C=Cc1ccc(O)cc1 [compound 2, p-Coumaric acid] | 3.9 µM | > 70% | 25 | 26.1 ± 3.8 µM | 174 µM | H (high output signals, and hence good efficacy (>70%)) | – | – | – | – | –
2 | Nc1ccc(C=CC(=O)O)cc1 [compound 3, 3-(4-Aminophenyl)-2-propenoic acid] | 12 µM | > 70% | 28.1 | 110 ± 25.7 µM | 1010 µM | H (high output signals, and hence good efficacy (>70%)) | – | – | – | – | –
3 | COc1cc(/C=C/C(=O)O)cc(OC)c1O [compound 4, Sinapic acid] | 19.8 µM | > 70% | 15.4 | > 200 µM | 4990 µM | H (high output signals, and hence good efficacy (>70%)) | 314 ± 55.8 µM | 225 fold | – | – | –
4 | COc1ccc(C=CC(=O)O)cc1O [compound 5, 3-Hydroxy-4-methoxycinnamic acid] | 36.3 µM | > 70% | 33.5 | > 200 µM | 1510 µM | H (high output signals, and hence good efficacy (>70%)) | 234 ± 15.4 µM | – | – | – | –
5 | COc1cc(C=CC(=O)O)cc(O)c1O [compound 6, 3,4-Dihydroxy-5-methoxycinnamic acid] | 33.9 µM | 40 to 60% | 14.8 | 746 ± 118 µM | 16400 µM | M (moderate signal (60–40%)) | – | 485 fold | 2.5 fold | – | –
6 | O=C(O)C=Cc1ccc(O)cc1O [compound 7, 2,4-Dihydroxycinnamic acid] | 131 µM | 40 to 60% | 9.6 | 823 ± 45.6 µM | 5170 µM | M (moderate signal (60–40%)) | – | – | – | – | –
7 | COc1ccc(C=CC(=O)O)cc1OC [compound 8, 3,4-Dimethoxycinnamic acid] | 228 µM | 40 to 60% | 11.4 | 825 ± 13.2 µM | 2990 µM | M (moderate signal (60–40%)) | – | – | – | – | –
8 | O=C(O)/C=C/c1ccc(O)c(O)c1 [compound 9, Caffeic acid] | 222 µM | 40 to 60% | 11.2 | 1180 ± 88.5 µM | 6250 µM | M (moderate signal (60–40%)) | – | – | – | – | –
9 | O=C(O)C=Cc1ccc([N+](=O)[O-])cc1 [compound 10, 4-Nitrocinnamic acid] | 158 µM | 40 to 60% | 9.5 | 1560 ± 96.8 µM | 15500 µM | M (moderate signal (60–40%)) | – | – | – | – | –
10 | COc1cc(C=CC(=O)O)cc(OC)c1OC [compound 11, 3,4,5-Trimethoxycinnamic acid] | 378 µM | < 40% | 6.7 | > 2000 µM | 14800 µM | L (low signals (<40%)) | 2360 ± 265 µM | – | 8 fold | < 40% | –
11 | COc1cc(CCC(=O)O)ccc1O [compound 12, 3-(4-Hydroxy-3-methoxyphenyl)propionic acid] | 702 µM | < 40% | 3.3 | – | 31300 µM | L (low signals (<40%)) | – | – | – | < 40% | low activity
12 | COc1cccc(C=CC(=O)O)c1 [compound 13, 3-Methoxycinnamic acid] | 816 µM | < 40% | 4.8 | – | – | L (low signals (<40%)) | – | – | – | < 40% | –
13 | O=C(O)/C=C/c1ccccc1 [compound 14, cinnamic acid] | – | – | – | – | – | – | – | – | – | – | no activity
14 | Cc1ccc(C=CC(=O)O)cc1 [compound 29, 4-methylcinnamic acid] | – | – | – | – | – | – | – | – | – | – | devoid of activity

Reference: publication PMC5048394, “Development and substrate specificity screening of an in vivo biosensor for the detection of biomass derived aromatic chemical building blocks” (Chemical Communications (Cambridge, England), 2016)
